From PubChem BioAssay AID330 (DTP/NCI, 2004)
Values joined by “and” are separate entries in the source; they are usually repeats but may differ in a detail not shown here. Identical values can stand only once. Toxic doses and inconclusive results are not listed. The calls were made as follows: active = survival T/C of 150% or more; inactive = T/C below 125% in these data.

Tested on: P388 leukemia ip, CD2F1 mice, survival T/C
Assay: NCI In Vivo Anticancer Drug Screen. Data for tumor model P388 Leukemia (intraperitoneal) in CD2F1 (CDF1) mice
Conditions: endpoint: median survival time, higher = longer survival
Procedure, shortened: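 Mice carrying the transplanted tumor received test compound or vehicle. Survival was recorded in each group, and the value is the treated-group measurement divided by that of the vehicle-treated control group.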

[1] = dose: 50.0 mg/kg/injection, schedule: Q01DX005 (ip), vehicle: saline with Tween-80
[2] = dose: 60.0 mg/kg/injection, schedule: Q01DX005 (ip), vehicle: saline with Tween-80
[3] = dose: 120.0 mg/kg/injection, schedule: Q01DX005 (ip), vehicle: saline with Tween-80
[4] = dose: 240.0 mg/kg/injection, schedule: Q01DX005 (ip), vehicle: saline with Tween-80
[5] = dose: 50.0 mg/kg/injection, schedule: Q01DX005 (ip), vehicle: Klucel (hydroxypropylcellulose) (HPC)
[6] = dose: 100.0 mg/kg/injection, schedule: Q01DX005 (ip), vehicle: Klucel (hydroxypropylcellulose) (HPC)
[7] = dose: 200.0 mg/kg/injection, schedule: Q01DX005 (ip), vehicle: Klucel (hydroxypropylcellulose) (HPC)
[8] = dose: 100.0 mg/kg/injection, schedule: Q04DX002 (ip), vehicle: saline with Tween-80
[9] = dose: 200.0 mg/kg/injection, schedule: Q04DX002 (ip), vehicle: saline with Tween-80
[10] = dose: 400.0 mg/kg/injection, schedule: Q04DX002 (ip), vehicle: saline with Tween-80
[11] = dose: 50.0 mg/kg/injection, schedule: Q01DX009 (ip), vehicle: Klucel (hydroxypropylcellulose) (HPC)
[12] = dose: 100.0 mg/kg/injection, schedule: Q01DX009 (ip), vehicle: Klucel (hydroxypropylcellulose) (HPC)
[13] = dose: 200.0 mg/kg/injection, schedule: Q01DX009 (ip), vehicle: Klucel (hydroxypropylcellulose) (HPC)

Measured: T/C

Cc1ccc(NC(=O)Nc2cc(S(=O)(=O)O)ccc2Oc2ccccc2Cl)cc1
inactive: dose: 100.0 mg/kg/injection, schedule: Q04DX003 (ip), vehicle: saline sonified 100 % of control | dose: 200.0 mg/kg/injection, schedule: Q04DX003 (ip), vehicle: saline sonified 90 % of control | dose: 400.0 mg/kg/injection, schedule: Q04DX003 (ip), vehicle: saline sonified 100 % of control

c1cc(C2CCOCC2)ccn1
inactive: dose: 12.5 mg/kg/injection, schedule: Q01DX009 (ip), vehicle: saline with Tween-80 100 % of control | dose: 12.5 mg/kg/injection, schedule: Q04DX003 (ip), vehicle: saline with Tween-80 100 % of control | dose: 25.0 mg/kg/injection, schedule: Q01DX009 (ip), vehicle: saline with Tween-80 90 % of control | dose: 25.0 mg/kg/injection, schedule: Q04DX003 (ip), vehicle: saline with Tween-80 100 % of control | dose: 50.0 mg/kg/injection, schedule: Q01DX009 (ip), vehicle: saline with Tween-80 100 % of control | dose: 50.0 mg/kg/injection, schedule: Q04DX003 (ip), vehicle: saline with Tween-80 95 % of control

CN(c1ccccc1)c1cc(O)[nH]c(=O)c1
inactive: dose: 12.5 mg/kg/injection, schedule: Q01DX009 (ip), vehicle: water 96 % of control | dose: 25.0 mg/kg/injection, schedule: Q01DX009 (ip), vehicle: water 111 % of control | dose: 50.0 mg/kg/injection, schedule: Q01DX009 (ip), vehicle: water 99 % of control | dose: 100.0 mg/kg/injection, schedule: Q01DX009 (ip), vehicle: water 100 % of control | dose: 200.0 mg/kg/injection, schedule: Q01DX009 (ip), vehicle: water 97 % of control

CN1C(=O)C/C(=C\N2CCCCC2)C1=O
inactive: [1] 98 % of control | dose: 100.0 mg/kg/injection, schedule: Q01DX005 (ip), vehicle: saline with Tween-80 102 % of control

O=C(Nc1cc2c3ccccc3ccc2c2ccccc12)C(Cl)Cl
inactive: [2] 100 % of control | [3] 100 % of control | [4] 102 % of control

O=S(Cc1ccc2c(c1)OCO2)c1ccccc1 (stereo not drawn)
inactive: dose: 100.0 mg/kg/injection, schedule: Q01DX001 (ip), vehicle: Klucel (hydroxypropylcellulose) (HPC) 101 % of control | dose: 200.0 mg/kg/injection, schedule: Q01DX001 (ip), vehicle: Klucel (hydroxypropylcellulose) (HPC) 100 % of control | dose: 400.0 mg/kg/injection, schedule: Q01DX001 (ip), vehicle: Klucel (hydroxypropylcellulose) (HPC) 100 % of control

CCCCCCCCCCCCCCCc1cccc(OC)c1C(=O)OC
inactive: dose: 20.0 mg/kg/injection, schedule: Q01DX009 (ip), vehicle: saline 109 % of control | dose: 40.0 mg/kg/injection, schedule: Q01DX009 (ip), vehicle: saline 106 % of control | dose: 80.0 mg/kg/injection, schedule: Q01DX009 (ip), vehicle: saline 104 % of control

CC(SCCCCCCSC(C)C(=O)O)C(=O)O (stereo not drawn)
inactive: [5] 110 % of control | [6] 97 % of control | [7] 95 % of control

CC(=O)OC1C2OC3C=C(C)CCC3(CO)C(C)(C1O)C21CO1 (stereo not drawn)
inactive: dose: 0.5 mg/kg/injection, schedule: Q01DX009 (ip), vehicle: saline 95 % of control | dose: 1.0 mg/kg/injection, schedule: Q01DX009 (ip), vehicle: saline 96 % of control | dose: 2.0 mg/kg/injection, schedule: Q01DX009 (ip), vehicle: saline 106 % of control | dose: 4.0 mg/kg/injection, schedule: Q01DX009 (ip), vehicle: saline 112 % of control

O=C(O)/C(=C\c1ccccn1)c1ccccc1
inactive: [8] 105 % of control | [9] 105 % of control | [10] 105 % of control

CCOC(=O)c1c[nH]n2ccnc12
inactive: [8] 100 % of control | [9] 103 % of control

CC1CN(c2ccc(Cl)cc2)CCOC(=O)O1 (stereo not drawn)
inactive: dose: 100.0 mg/kg/injection, schedule: Q01DX001 (ip), vehicle: saline with Tween-80 92 % of control | dose: 200.0 mg/kg/injection, schedule: Q01DX001 (ip), vehicle: saline with Tween-80 95 % of control | dose: 400.0 mg/kg/injection, schedule: Q01DX001 (ip), vehicle: saline with Tween-80 92 % of control

Cc1c([N+](=O)[O-])/c(=N/O)c2c(=O)c([N+](=O)[O-])coc2n1O
inactive: [11] 108 % of control | [12] 99 % of control | [13] 90 % of control

C=Cn1c([N+](=O)[O-])cnc1/C=C/c1ccc(C(=O)N(CCCC)CCCC)cc1
inactive: [8] 100 % of control | [9] 100 % of control | [10] 89 % of control

COc1cc2c(c3c1c(=O)c1cccc(F)c1n3C)C=CC(C)(C)O2
inactive: dose: 25.0 mg/kg/injection, schedule: Q01DX005 (ip), vehicle: Klucel (hydroxypropylcellulose) (HPC) 113 % of control | [5] 109 % of control and 110 % of control | [6] 120 % of control

[Cu+2].[O-]/C(=N\N=C\c1ccccn1)c1ccccc1O.[O-]/C(=N\N=C\c1ccccn1)c1ccccc1O
inactive: dose: 50.0 mg/kg/injection, schedule: Q04DX002 (ip), vehicle: saline with Tween-80 98 % of control | [8] 95 % of control | [9] 94 % of control

CCOC(=O)c1ccc(NC(=O)Nc2cccc3c(O)cccc23)cc1
inactive: dose: 60.0 mg/kg/injection, schedule: Q01DX005 (ip), vehicle: Klucel (hydroxypropylcellulose) (HPC) 89 % of control | dose: 120.0 mg/kg/injection, schedule: Q01DX005 (ip), vehicle: Klucel (hydroxypropylcellulose) (HPC) 96 % of control | dose: 240.0 mg/kg/injection, schedule: Q01DX005 (ip), vehicle: Klucel (hydroxypropylcellulose) (HPC) 88 % of control

c1cnc2c(c1)ccc1ncccc12
inactive: [5] 104 % of control | [6] 95 % of control | [7] 97 % of control

CC(=O)C1C(=O)C(=O)N(c2ccc(C)cc2C)C1=O (stereo not drawn)
inactive: [11] 105 % of control | [12] 114 % of control | [13] 110 % of control

CCCCCC(=N\N=C(N)N)/C(C)=N/N=C(N)N
inactive: dose: 12.5 mg/kg/injection, schedule: Q01DX005 (ip), vehicle: saline with Tween-80 98 % of control | dose: 25.0 mg/kg/injection, schedule: Q01DX005 (ip), vehicle: saline with Tween-80 97 % of control | [1] 101 % of control | dose: 50.0 mg/kg/injection, schedule: Q01DX005 (ip), vehicle: saline 100 % of control

COc1ccc(C2COc3cc(O)c(O)cc3C2)cc1 (stereo not drawn)
inactive: [2] 97 % of control | [3] 107 % of control | [4] 97 % of control

CCN(CC)CCSc1nnc(-c2cc(OC)c(OC)c(OC)c2)o1
inactive: dose: 50.0 mg/kg/injection, schedule: Q04DX003 (ip), vehicle: water 100 % of control | dose: 100.0 mg/kg/injection, schedule: Q04DX003 (ip), vehicle: water 103 % of control

O=C(NN(Cn1c(=S)sc2ccccc21)Cn1c(=S)sc2ccccc21)c1ccncc1
inactive: dose: 3.12 mg/kg/injection, schedule: Q01DX009 (ip), vehicle: Klucel (hydroxypropylcellulose) (HPC) 105 % of control and 98 % of control | dose: 6.25 mg/kg/injection, schedule: Q01DX009 (ip), vehicle: Klucel (hydroxypropylcellulose) (HPC) 93 % of control and 94 % of control | dose: 12.5 mg/kg/injection, schedule: Q01DX009 (ip), vehicle: Klucel (hydroxypropylcellulose) (HPC) 88 % of control and 92 % of control

COc1ccc2nc(NC(=O)Nc3c(Cl)cccc3Cl)sc2c1
inactive: [2] 95 % of control | [3] 101 % of control | [4] 88 % of control

COc1ccc2[se]c(C(=O)O)cc2c1
inactive: dose: 50.0 mg/kg/injection, schedule: Q01DX009 (ip), vehicle: saline 91 % of control | dose: 100.0 mg/kg/injection, schedule: Q01DX009 (ip), vehicle: saline 91 % of control
